Results published in US11617850B2, “Delivery systems and methods for electric plasma synthesis of nitric oxide” (The General Hospital Corporation, priority 2016, dated 2023).

Experiments:
mice (C57BL6 male WT) = assay: Mice breathing air or electrically generated 50 ppm NO in air for 28 days; format: in vivo; conditions: 50 ppm NO in air
From the text: A second chamber 802 was supplied with 50 ppm of NO gas in air, generated by a spark plug generator using platinum-iridium electrodes and subsequently scavenged using 75 g Ca(OH). A plurality of mice (C57BL6 male WT) breathed the NO laden air for the same 28 day period. During the 28 day test, humidity, CO2, O2, NO, and NO2 were monitored intermittently.
Throughout the 28 day test, the mice were weighed in weekly intervals to track a change in the body weight of the mice throughout the 28 day test. […] Once the 28 day test was complete, lung specimens from the mice were analyzed using a high resolution magnetic sector field inductively coupled mass spectrometer (Thermo Fisher, Bremen, Germany).

[1] = tested on: awake sheep with acute pulmonary hypertension, due to U46619 infusion; assay: Inhaled electrically generated NO in awake sheep with acute pulmonary hypertension due to U46619 infusion; format: in vivo
From the text: Animal studies were approved by the Institutional Animal Care and Use Committee of Massachusetts General Hospital (Boston, Mass.). The NO generator 102 of the NO generation system 100 was coupled to a tracheostomy tube in a spontaneously breathing awake 35 kg sheep.
To induce pulmonary hypertension, a potent pulmonary vasoconstrictor U46619 (Cayman Chemical, Ann Arbor, Mich.), the analog of the endoperoxide prostaglandin H2, was infused intravenously to increase pulmonary arterial pressure (PAP) to 30 mmHg. The pulmonary arterial pressure and PAP was continuously monitored using a Gould 6600 amplifier system (Gould Electronics, Inc., Eastlake, Ohio).
In turn, the electric plasma discharge of the electrodes supplied NO gas to the spontaneously breathing awake sheep during those 0.8 seconds.
Turning to FIGS. 11 and 12, the above-described operation of the NO system 200 (i.e., triggering the NO generator 102 for approximately 0.8 second during early inspiration, for example, 20 milliseconds after commencement of inspiration) was implemented during a NO exposure time 700. Prior to and following the NO exposure time 700, a baseline was generated. The NO generator 102 was configured to output approximately 20 ppm of NO for three different runs (FIG. 11) and was configured to output 5 ppm of NO for another run (FIG. 12).
In addition to PAP, the arterial oxygen saturation was also measured as a function of time in the awake sheep. […] Lastly, the relative arterial oxygen saturation was calculated as a function of time for all four periods of NO inhalation.

Q: Which results are given for `[N]=O` [NO, nitric oxide]?
A: lung histology (H&E staining of larynx, trachea, main bronchus, lung tissues) (mice (C57BL6 male WT)): no evidence of lung inflammation or pathology; iridium and platinum in lung specimens versus control mice (ICP mass spectrometry) (mice (C57BL6 male WT); platinum-iridium electrodes, Ca(OH) scavenger): no detectable difference; body weight gain versus mice breathing air (mice (C57BL6 male WT); weighed weekly): did not differ; arterial oxygen saturation (SaO2) during the NO exposure time ([1]; 5 ppm NO inhaled): generally constant; effect on pulmonary artery pressure (PAP) during the NO exposure time ([1]; 5 ppm NO inhaled, one run): does not show a measurable effect; arterial oxygen saturation (SaO2) during the NO exposure time ([1]; 20 ppm NO inhaled): increases; improvement of relative arterial oxygen saturation during the NO exposure time ([1]; 20 ppm NO inhaled, three trials): approximately 10%
